Data set [1] concerns the target T1, Insulin Receptor (Homo sapiens, UniProt P06213). The data set is described as follows: Insulin receptor binding assay (competition, scintillation proximity). The following applies: Table 9; IGF-1 receptor IC50 versus insulin receptor IC50.
A short description of data set [2]: Dipeptide half life on IGF1 dipeptide extended (p-NH2-F)A19 amide derivatives in PBS (HPLC). The class given is physicochemical. The protocol: IGF-1 peptides was measured to determine the impact of the peptide sequence or heteroduplex on the dipeptide cleavage.
Accordingly, the IGF1A chain alone was determined to be a good model for the study of pro-drug half life on IGF1 B:A (Y^B16L^B17) derivative peptides. […] For simplicity, prodrug half lives were determined using only the IGF1 A chain in the absence of the B chain. The half lives of each propeptide was determined as described in Example 5.
The IGF^B16B17 derivative peptide prodrugs were incubated in PBS, pH 7.4 at 37° C. and at predetermined time intervals an aliquot was taken and further degradation was quenched with 0.1% TFA and the aliquot was subjected to analytical HPLC analysis. Peaks a and b, representing the prodrug and active forms of the IGF^B16B17 derivative peptide were identified with LC-MS and quantified by integration of peak area an HPLC. FIGS. 9A-9C show the output of an HPLC analysis of the degradation of the IGF^B16B17 derivativepeptide prodrug: IGF1A(Ala)^6,7,11,20(Aib-Pro-pNH-F)^19. Aliquots were taken at 20 minutes (FIG. 9A), 81 minutes (FIG. 9B) and 120 minutes (FIG. 9C) after beginning the incubation of the prodrug in PBS.

Data set [3] addresses T1, Insulin Receptor. As to the kind of experiment: Insulin receptor phosphorylation assay (receptor transfected HEK293 cells). The class given is cell-based. Further details: expressed in transfected cells; host or cells: HEK293. The following applies: Table 10; IGF-1 receptor EC50 versus insulin receptor EC50.

The results in this text go back to patent US20110245164A1 (INDIANA UNIVERSITY RESEARCH AND TECHNOLOGY, published 2011).

Non-standard residues stand in square brackets, D forms with d. Residues, ends and D or L forms follow the SMILES beside them. Groups on a side chain read outwards from the residue. *: point of attachment. Phe(4-NH2) = Nc1ccc(C[C@H](N)C(=O)O)cc1; X1 = CCCCCCN(CC(=O)*)C(=O)[C@H](N)CCCCN; Aib = CC(C)(N)C(=O)O; Sar = CNCC(=O)O

T1 sequence (P06213 28-758 limits assumed): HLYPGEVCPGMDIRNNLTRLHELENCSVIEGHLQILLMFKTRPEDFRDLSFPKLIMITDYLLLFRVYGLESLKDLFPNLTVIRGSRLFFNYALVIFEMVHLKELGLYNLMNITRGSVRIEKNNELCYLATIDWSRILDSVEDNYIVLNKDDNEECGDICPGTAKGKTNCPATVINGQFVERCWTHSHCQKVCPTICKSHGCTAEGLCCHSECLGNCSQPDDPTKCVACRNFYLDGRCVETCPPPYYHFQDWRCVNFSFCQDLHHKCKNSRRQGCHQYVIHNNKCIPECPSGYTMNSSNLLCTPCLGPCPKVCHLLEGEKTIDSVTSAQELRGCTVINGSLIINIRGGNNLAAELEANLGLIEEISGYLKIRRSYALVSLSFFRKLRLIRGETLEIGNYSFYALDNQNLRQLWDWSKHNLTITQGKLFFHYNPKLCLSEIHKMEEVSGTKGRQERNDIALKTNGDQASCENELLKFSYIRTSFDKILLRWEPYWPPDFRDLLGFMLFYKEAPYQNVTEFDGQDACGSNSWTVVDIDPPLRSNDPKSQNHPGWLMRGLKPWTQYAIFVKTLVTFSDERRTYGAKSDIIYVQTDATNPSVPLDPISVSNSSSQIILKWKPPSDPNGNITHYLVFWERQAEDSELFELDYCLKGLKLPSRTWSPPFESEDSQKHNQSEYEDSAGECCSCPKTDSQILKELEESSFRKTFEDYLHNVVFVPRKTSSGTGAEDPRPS
T1 sequence (P06213 763-1382 partner limits assumed): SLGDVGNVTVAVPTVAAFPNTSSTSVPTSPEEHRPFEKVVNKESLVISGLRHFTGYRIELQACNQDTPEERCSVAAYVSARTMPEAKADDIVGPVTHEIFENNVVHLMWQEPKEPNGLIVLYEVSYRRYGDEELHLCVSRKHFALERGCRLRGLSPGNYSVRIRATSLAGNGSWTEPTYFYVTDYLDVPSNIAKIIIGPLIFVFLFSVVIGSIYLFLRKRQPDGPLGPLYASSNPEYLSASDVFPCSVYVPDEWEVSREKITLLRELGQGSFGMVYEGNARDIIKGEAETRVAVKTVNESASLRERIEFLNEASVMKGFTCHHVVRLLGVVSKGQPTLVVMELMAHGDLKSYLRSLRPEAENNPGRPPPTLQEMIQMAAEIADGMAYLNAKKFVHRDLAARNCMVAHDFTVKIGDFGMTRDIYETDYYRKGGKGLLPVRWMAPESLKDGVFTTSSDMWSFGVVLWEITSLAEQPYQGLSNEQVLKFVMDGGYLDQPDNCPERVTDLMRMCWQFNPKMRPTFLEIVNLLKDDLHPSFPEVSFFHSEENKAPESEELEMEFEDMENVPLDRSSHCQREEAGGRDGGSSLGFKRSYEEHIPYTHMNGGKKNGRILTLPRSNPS

Turning to `CC[C@H](C)[C@H](NC(=O)CN)C(=O)N[C@H](C(=O)N[C@@H](CC(=O)O)C(=O)N[C@@H](CCC(=O)O)C(=O)N[C@H]1CSSC[C@@H]2NC(=O)[C@H](CO)NC(=O)[C@H](CCCNC(=N)N)NC(=O)[C@H](Cc3ccccc3)NC(=O)[C@H](CSSC[C@H](NC(=O)[C@H](CC(C)C)NC(=O)[C@@H](NC(=O)[C@H](CCC(=O)O)NC(=O)[C@@H]3CCCN3C(=O)CN)[C@@H](C)O)C(=O)NCC(=O)N[C@@H](C)C(=O)N[C@@H](CCC(=O)O)C(=O)N[C@@H](CC(C)C)C(=O)N[C@@H](C(C)C)C(=O)N[C@@H](CC(=O)O)C(=O)N[C@@H](C)C(=O)N[C@@H](CC(C)C)C(=O)N[C@@H](Cc3ccc(O)cc3)C(=O)N[C@@H](CC(C)C)C(=O)N[C@@H](C(C)C)C(=O)N[C@H](C(=O)NCC(=O)N[C@@H](CC(=O)O)C(=O)N[C@@H](CCCNC(=N)N)C(=O)NCC(=O)N[C@@H](Cc3ccccc3)C(=O)N[C@@H](Cc3ccc(O)cc3)C(N)=O)CSSC[C@@H](C(=O)N[C@@H](C)C(N)=O)NC(=O)[C@H](Cc3ccc(O)cc3)NC(=O)[C@H](CCSC)NC(=O)[C@H](CCC(=O)O)NC(=O)[C@H](CC(C)C)NC(=O)[C@H](CCCNC(=N)N)NC(=O)[C@H](CCCNC(=N)N)NC(=O)[C@H](CC(C)C)NC(=O)[C@H](CC(=O)O)NC2=O)NC1=O)C(C)C` [IGF-1 A:B (E10Y16L17) DPI], the Ratio at Insulin Receptor [1] came to 60.2.

`CCCCCCN(CC(=O)Nc1ccc(C[C@H](NC(=O)[C@H](CCSC)NC(=O)[C@H](CCC(=O)O)NC(=O)[C@H](CC(C)C)NC(=O)[C@H](CCCNC(=N)N)NC(=O)[C@H](CCCNC(=N)N)NC(=O)[C@H](CC(C)C)NC(=O)[C@H](CC(=O)O)NC(=O)[C@H](C)NC(=O)[C@H](CO)NC(=O)[C@H](CCCNC(=N)N)NC(=O)[C@H](Cc2ccccc2)NC(=O)[C@H](C)NC(=O)[C@H](C)NC(=O)[C@H](CCC(=O)O)NC(=O)[C@H](CC(=O)O)NC(=O)[C@@H](NC(=O)[C@@H](NC(=O)CN)[C@@H](C)CC)C(C)C)C(=O)N[C@@H](C)C(=O)N[C@@H](C)C(N)=O)cc1)C(=O)[C@H](N)CCCCN` [dK N-hexyl Gly] (H-GIVDEAAFRSADLRRLEM[Phe(4-NH2)](X1)AA-NH2; N-terminus assumed) had a half-life in data set [2] (buffer, pH 7.4) of 10.6 h.

As to `CC[C@H](C)[C@H](NC(=O)CN)C(=O)N[C@H](C(=O)N[C@@H](CC(=O)O)C(=O)N[C@@H](CCC(=O)O)C(=O)N[C@@H](C)C(=O)N[C@@H](C)C(=O)N[C@@H](Cc1ccccc1)C(=O)N[C@@H](CCCNC(=N)N)C(=O)N[C@@H](CO)C(=O)N[C@@H](C)C(=O)N[C@@H](CC(=O)O)C(=O)N[C@@H](CC(C)C)C(=O)N[C@@H](CCCNC(=N)N)C(=O)N[C@@H](CCCNC(=N)N)C(=O)N[C@@H](CC(C)C)C(=O)N[C@@H](CCC(=O)O)C(=O)N[C@@H](CCSC)C(=O)N[C@@H](Cc1ccc(NC(=O)CN(C)C(=O)[C@@H](N)CCCCN)cc1)C(=O)N[C@@H](C)C(=O)N[C@@H](C)C(N)=O)C(C)C` [K Sar] (H-GIVDEAAFRSADLRRLEM[Phe(4-NH2)]([Sar-Lys])AA-NH2), in data set [2] (buffer), the “Half Life” value was found to be 21.8 h and the “Half Life, PBS” value is 21.8 h.

On to `CC[C@H](C)[C@H](NC(=O)CN)C(=O)N[C@H](C(=O)N[C@@H](CC(=O)O)C(=O)N[C@@H](CCC(=O)O)C(=O)N[C@@H](C)C(=O)N[C@@H](C)C(=O)N[C@@H](Cc1ccccc1)C(=O)N[C@@H](CCCNC(=N)N)C(=O)N[C@@H](CO)C(=O)N[C@@H](C)C(=O)N[C@@H](CC(=O)O)C(=O)N[C@@H](CC(C)C)C(=O)N[C@@H](CCCNC(=N)N)C(=O)N[C@@H](CCCNC(=N)N)C(=O)N[C@@H](CC(C)C)C(=O)N[C@@H](CCC(=O)O)C(=O)N[C@@H](CCSC)C(=O)N[C@@H](Cc1ccc(NC(=O)[C@H]2CCCN2C(=O)C(C)(C)N)cc1)C(=O)N[C@@H](C)C(=O)N[C@@H](C)C(N)=O)C(C)C` [AiB dPro] (H-GIVDEAAFRSADLRRLEM[Phe(4-NH2)]([dP-Aib])AA-NH2), for which, in data set [2] (buffer), the “Half Life” value was found to be 1.9 h and the “Half Life, PBS” value was determined as 2.1 h.

On to `CC[C@H](C)[C@H](NC(=O)CN)C(=O)N[C@H](C(=O)N[C@@H](CC(=O)O)C(=O)N[C@@H](CCC(=O)O)C(=O)N[C@H]1CSSC[C@@H]2NC(=O)[C@H](CO)NC(=O)[C@H](C)NC(=O)[C@H](Cc3c[nH]cn3)NC(=O)[C@H](CSSC[C@H](NC(=O)[C@H](CC(C)C)NC(=O)[C@H](Cc3c[nH]cn3)NC(=O)[C@H](CCC(=O)O)NC(=O)[C@@H]3CCCN3C(=O)CN)C(=O)NCC(=O)N[C@@H](C)C(=O)N[C@@H](CC(=O)O)C(=O)N[C@@H](CC(C)C)C(=O)N[C@@H](C(C)C)C(=O)N[C@@H](CC(=O)O)C(=O)N[C@@H](C)C(=O)N[C@@H](CC(C)C)C(=O)N[C@@H](Cc3ccc(O)cc3)C(=O)N[C@@H](CC(C)C)C(=O)N[C@@H](C(C)C)C(=O)N[C@H](C(=O)NCC(=O)N[C@@H](CC(=O)O)C(=O)N[C@@H](C)C(=O)NCC(=O)N[C@@H](Cc3ccccc3)C(=O)N[C@@H](Cc3ccc(O)cc3)C(N)=O)CSSC[C@@H](C(=O)N[C@@H](CC(N)=O)C(=O)O)NC(=O)[C@H](Cc3ccc(O)cc3)NC(=O)[C@H](CCSC)NC(=O)[C@H](CCC(=O)O)NC(=O)[C@H](CC(C)C)NC(=O)[C@H](CCCNC(=N)N)NC(=O)[C@H](CCCNC(=N)N)NC(=O)[C@H](CC(C)C)NC(=O)[C@H](CC(=O)O)NC2=O)NC1=O)C(C)C`, for which the “Selective Ratio” value on Insulin Receptor [3] turned out to be 32.54.

On to `CC[C@H](C)[C@H](NC(=O)CN)C(=O)N[C@H](C(=O)N[C@@H](CC(=O)O)C(=O)N[C@@H](CCC(=O)O)C(=O)N[C@H]1CSSC[C@@H]2NC(=O)[C@H](CO)NC(=O)[C@H](C)NC(=O)[C@H](Cc3c[nH]cn3)NC(=O)[C@H](CSSC[C@H](NC(=O)[C@H](CC(C)C)NC(=O)[C@H](Cc3c[nH]cn3)NC(=O)[C@H](CCC(=O)O)NC(=O)[C@@H]3CCCN3C(=O)CN)C(=O)NCC(=O)N[C@@H](C)C(=O)N[C@@H](CC(=O)O)C(=O)N[C@@H](CC(C)C)C(=O)N[C@@H](C(C)C)C(=O)N[C@@H](CC(=O)O)C(=O)N[C@@H](C)C(=O)N[C@@H](CC(C)C)C(=O)N[C@@H](Cc3ccc(O)cc3)C(=O)N[C@@H](CC(C)C)C(=O)N[C@@H](C(C)C)C(=O)N[C@H](C(=O)NCC(=O)N[C@@H](CC(=O)O)C(=O)N[C@@H](CCCNC(=N)N)C(=O)NCC(=O)N[C@@H](Cc3ccccc3)C(=O)N[C@@H](Cc3ccc(O)cc3)C(N)=O)CSSC[C@@H](C(=O)N[C@@H](CC(N)=O)C(=O)O)NC(=O)[C@H](Cc3ccc(O)cc3)NC(=O)[C@H](CCSC)NC(=O)[C@H](CCC(=O)O)NC(=O)[C@H](CC(C)C)NC(=O)[C@H](CCCNC(=N)N)NC(=O)[C@H](CCCNC(=N)N)NC(=O)[C@H](CC(C)C)NC(=O)[C@H](CC(=O)O)NC2=O)NC1=O)C(C)C`, for which the “Selective Ratio” value on Insulin Receptor [3] was determined as 2.81.

On to `CC[C@H](C)[C@H](NC(=O)CN)C(=O)N[C@H](C(=O)N[C@@H](CC(=O)O)C(=O)N[C@@H](CCC(=O)O)C(=O)N[C@@H](C)C(=O)N[C@@H](C)C(=O)N[C@@H](Cc1ccccc1)C(=O)N[C@@H](CCCNC(=N)N)C(=O)N[C@@H](CO)C(=O)N[C@@H](C)C(=O)N[C@@H](CC(=O)O)C(=O)N[C@@H](CC(C)C)C(=O)N[C@@H](CCCNC(=N)N)C(=O)N[C@@H](CCCNC(=N)N)C(=O)N[C@@H](CC(C)C)C(=O)N[C@@H](CCC(=O)O)C(=O)N[C@@H](CCSC)C(=O)N[C@@H](Cc1ccc(NC(=O)[C@@H]2CCCN2C(=O)C(C)(C)N)cc1)C(=O)N[C@@H](C)C(=O)N[C@@H](C)C(N)=O)C(C)C` [AiB Pro] (H-GIVDEAAFRSADLRRLEM[Phe(4-NH2)]([Pro-Aib])AA-NH2), for which, in data set [2] (buffer), the “Half Life” value was 2.2 h and the “Half Life, PBS” value turned out to be 2.2 h. Further, the “degradation of prodrug to active form (HPLC), in words” value in data set [2] (pH 7.4) was “spontaneous, non-enzymatic conversion”.

Turning to `CC[C@H](C)[C@H](NC(=O)CN)C(=O)N[C@H](C(=O)N[C@@H](CC(=O)O)C(=O)N[C@@H](CCC(=O)O)C(=O)N[C@H]1CSSC[C@@H]2NC(=O)[C@H](CO)NC(=O)[C@H](CCCNC(=N)N)NC(=O)[C@H](Cc3ccccc3)NC(=O)[C@H](CSSC[C@H](NC(=O)[C@H](CC(C)C)NC(=O)[C@@H](NC(=O)[C@H](CCC(=O)O)NC(=O)[C@@H]3CCCN3C(=O)CN)[C@@H](C)O)C(=O)NCC(=O)N[C@@H](C)C(=O)N[C@@H](CC(=O)O)C(=O)N[C@@H](CC(C)C)C(=O)N[C@@H](C(C)C)C(=O)N[C@@H](CC(=O)O)C(=O)N[C@@H](C)C(=O)N[C@@H](CC(C)C)C(=O)N[C@@H](Cc3ccc(O)cc3)C(=O)N[C@@H](CC(C)C)C(=O)N[C@@H](C(C)C)C(=O)N[C@H](C(=O)NCC(=O)N[C@@H](CC(=O)O)C(=O)N[C@@H](CCCNC(=N)N)C(=O)NCC(=O)N[C@@H](Cc3ccccc3)C(=O)N[C@@H](Cc3ccc(O)cc3)C(N)=O)CSSC[C@@H](C(=O)N[C@@H](C)C(=O)O)NC(=O)[C@H](Cc3ccc(O)cc3)NC(=O)[C@H](CCSC)NC(=O)[C@H](CCC(=O)O)NC(=O)[C@H](CC(C)C)NC(=O)[C@H](CCCNC(=N)N)NC(=O)[C@H](CCCNC(=N)N)NC(=O)[C@H](CC(C)C)NC(=O)[C@H](CC(=O)O)NC2=O)NC1=O)C(C)C` [IGF-1 A:B(D10Y16L17) DPI A-COOH], on Insulin Receptor [3], the “Selective Ratio” value is 9.75.

One may read the half-life as the time needed for the level to fall by half in the phase considered. A low value points to rapid decline.
